Experimental data published in PubChem BioAssay AID1963431 (Molecular Pharmacology Branch, DTP, NCI, 2024).

Tested on: Rh18 complex spheroid viability, percent test/control
Test: Anticancer human tumor Rh18 cell line growth inhibition [Asc];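 further: spheroids exposed to compound for 7 days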;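 on viability, T/C: 100% = DMSO vehicle control wells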
Conditions: for IC50: curve of first compound; for viability, T/C: stronger effect = lower value; active means viability on the fitted dose curve at most 10% of control; inactive means the rest
Protocol: Multicellular complex tumor spheroid response to apoptosis pathway targeting inhibitors Alrizomadlin, Pelcitoclax, and Dasminapant in combination with a variety of drugs and investigational agents in selected tumor cell lines
The MDM2 inhibitor alrizomadlin, the Bcl-2/Bcl-xL inhibitor pelcitoclax, and the IAPs inhibitor dasminapant were evaluated both individually and in combination with standard of care and investigational anticancer small molecules within a complex spheroid model of solid tumors. . Complex spheroids include a stromal component modeled by human endothelial cells (HUVEC) and fibroblasts modeled by human mesenchymal stem cells (MSCs). The concentration ranges selected for each drug and investigational agent were based upon clinically achievable concentrations if the clinical Cmax of the agent was known.
Compounds. The drugs and investigational agents: alrizomadlin (APG-115; NSC831270), pelcitoclax (APG-1252; NSC835773), dasminapant (APG-1387;NSC834197), TAK-243 (NSC785004), copanlisib (NSC809693), olaparib (NSC753686), talazoparib (NSC767125), cobimetinib (NSC 768068), eltanexor (KPT-8602, NSC 794443), abemaciclib (NSC 768073), sotorasib (NSC818433), adagrasib (NSC 831453), MRTX-1133 (NSC 836407), Iadademestat (ORY1001, NSC 806812), and RMC-4630 (NSC839698), were obtained from the NCI Developmental Therapeutics Program Chemical Repository. The FDA-approved anticancer drug set is available from the Developmental Therapeutics Program at https://dtp.cancer.gov/organization/dscb/obtaining/available plates.htm. […] The stock solutions were prepared in dimethyl sulfoxide (DMSO, Sigma-Aldrich, St. Louis, MO, cat. D2650) at 800-fold the tested concentration and stored at -70 degrees C prior to their use. All drugs and investigational agents were tested over a range starting from a high concentration at or near the clinical Cmax and decreasing in half-log increments. If the clinical Cmax for an agent had not been determined, the highest concentration tested was 10 microM.
The patient-derived cancer (PDC) cell lines include five colon adenocarcinomas: 186277-243-T-J2-PDC, 616215-338-R-J1-PDC, 439559-082-T-J2-PDC, 463943-066-T-J2-PDC, and 519858-162-T-J1-PDC; three pancreatic carcinomas: 323965-272-R-J2-PDC, 521955-158-R6-J3-PDC, and 521955-158-R2-J5-PDC; two uterine sarcomas: 327498-152-R-J2-PDC and 993429-296-R-J1-PDC; two rhabdomyosarcomas: 755483-174-R-J1-PDC and 772245-204-R-J1-PDC; two soft tissue sarcomas: 126254-015-R-J1-PDC and 494315-158-R-J1-PDC; two malignant fibrous histiocytomas: 317291-083-R-J1-PDC and 596521-263-R-J1-PDC; two breast carcinomas: 171881-019-R-J1-PDC and 885512-296-R-J2-PDC; and one ovarian carcinoma: 6556581-035-R-J-PDC were obtained from the NCI PDMR, (https://pdmr.cancer.gov). The established cell lines HSSY-2 synovial sarcoma (RRID:CVCL 8719), SYO-1 synovial sarcoma (RRID:CVCL_7146), MPNST malignant peripheral neural sheath tumor were obtained from the Sloan Kettering Institute. The following established cell lines were purchased from the American Type Culture Collection (ATCC, Manassas, VA), Sor the received from the NCI repository:, PANC-1 pancreatic carcinoma (CRL-1469, RRID:CVCL_0480), OVCAR-5 ovarian carcinoma (RRID:CVCL_1628), OVCAR-8 ovarian carcinoma (RRID:CVCL_1629), , MCF-7 breast carcinoma (CRL-12584, RRID:CVCL_0031), MDA-MB-231 breast carcinoma (CRL-12532, RRID:CVCL_0062), NCI-H1876 small cell lung carcinoma (CRL-5902, RRID:CVCL_1503), NCI-H510A small cell lung carcinoma (HTB-184, RRID:CVCL_1565), NCI-H1417 (CRL-5869, RRID:CVCL_1469), and NCI-H196 small cell lung carcinoma (CRL-5823, RRID:CVCL_1509). Dr. Peter Houghton (Greehey Children's Cancer Research Institute, University of Texas Health Science Center, San Antonio, TX) provided Rh-18 rhabdomyosarcoma (RRID:CVCL_1659). Pooled donor human umbilical vein endothelial cells (HUVEC, Lonza, cat. CC-2519) and human mesenchymal stem cells (hMSC, Lonza, cat. PT-2501) were purchased from Lonza (Walkersville, MD).
Cell Culture. […]

CNC(C)C(=O)NC1CN(S(=O)(=O)c2cccc(S(=O)(=O)N3CCC4CCC(C(=O)NC(c5ccccc5)c5ccccc5)N4C(=O)C(NC(=O)C(C)NC)C3)c2)CCC2CCC(C(=O)NC(c3ccccc3)c3ccccc3)N2C1=O (stereo not given) + CCN1C(C(=O)NC23CCC(C(=O)O)(CC2)CC3)C(c2cccc(Cl)c2F)C2(C(=O)Nc3cc(Cl)ccc32)C12CCCCC2
active: viability, T/C (second compound 0.949 µM, first compound 0.0316 µM) 10.5% | viability, T/C (second compound 0.949 µM, first compound 0.1 µM) 9.19% | viability, T/C (second compound 0.949 µM, first compound 0.316 µM) 9.26% | viability, T/C (second compound 0.949 µM, first compound 1 µM) 10.8% | viability, T/C (second compound 3 µM, first compound 0.01 µM) 8.24% | viability, T/C (second compound 3 µM, first compound 0.0316 µM) 9.03% | viability, T/C (second compound 3 µM, first compound 0.1 µM) 9.34% | viability, T/C (second compound 3 µM, first compound 0.316 µM) 11.1% | viability, T/C (second compound 3 µM, first compound 1 µM) 10.5%
< 3.16 nM: IC50 (second compound 0.03 µM) | IC50 (second compound 0.0949 µM) | IC50 (second compound 0.3 µM) | IC50 (second compound 0.949 µM) | IC50 (second compound 3 µM)
inactive: viability, T/C (second compound 0.03 µM, first compound 0.00316 µM) 30.1% | viability, T/C (second compound 0.03 µM, first compound 0.01 µM) 27.8% | viability, T/C (second compound 0.03 µM, first compound 0.0316 µM) 23.9% | viability, T/C (second compound 0.03 µM, first compound 0.1 µM) 18.8% | viability, T/C (second compound 0.03 µM, first compound 0.316 µM) 19.3% | viability, T/C (second compound 0.03 µM, first compound 1 µM) 17.5% | viability, T/C (second compound 0.0949 µM, first compound 0.00316 µM) 16.2% | viability, T/C (second compound 0.0949 µM, first compound 0.01 µM) 19.3% | viability, T/C (second compound 0.0949 µM, first compound 0.0316 µM) 16.2% | viability, T/C (second compound 0.0949 µM, first compound 0.1 µM) 16.8% | viability, T/C (second compound 0.0949 µM, first compound 0.316 µM) 13.7% | viability, T/C (second compound 0.0949 µM, first compound 1 µM) 16.5% | viability, T/C (second compound 0.3 µM, first compound 0.00316 µM) 13.8% | viability, T/C (second compound 0.3 µM, first compound 0.01 µM) 11% | viability, T/C (second compound 0.3 µM, first compound 0.0316 µM) 14.3% | viability, T/C (second compound 0.3 µM, first compound 0.1 µM) 12.4% | viability, T/C (second compound 0.3 µM, first compound 0.316 µM) 8.81% | viability, T/C (second compound 0.3 µM, first compound 1 µM) 10.8% | viability, T/C (second compound 0.949 µM, first compound 0.00316 µM) 10.8% | viability, T/C (second compound 0.949 µM, first compound 0.01 µM) 10% | viability, T/C (second compound 3 µM, first compound 0.00316 µM) 10.8%

COc1c(OCCCN2CCOCC2)ccc2c3n(c(=NC(=O)c4cnc(N)nc4)nc12)CCN3 + Cc1c(S(C)(=O)=O)c(-c2cc(F)cc(N3CCN(c4ccc(NS(=O)(=O)c5ccc(NC(CCN6CCC(C(=O)OCCCP(=O)(O)O)CC6)CSc6ccccc6)c(S(=O)(=O)C(F)(F)F)c5)cc4)CC3)c2)c(-c2ccc(Cl)cc2)n1C(C)C
< 3.16 nM: IC50 (second compound 0.1 µM) | IC50 (second compound 0.316 µM) | IC50 (second compound 1 µM) | IC50 (second compound 3.16 µM) | IC50 (second compound 10 µM)
inactive: viability, T/C (second compound 0.1 µM, first compound 0.00316 µM) 17.1%
active: viability, T/C (second compound 0.1 µM, first compound 0.01 µM) 9.25% | viability, T/C (second compound 0.1 µM, first compound 0.0316 µM) 5.96% | viability, T/C (second compound 0.1 µM, first compound 0.1 µM) 2.81% | viability, T/C (second compound 0.1 µM, first compound 0.316 µM) 0.62% | viability, T/C (second compound 0.1 µM, first compound 1 µM) 0.45% | viability, T/C (second compound 0.316 µM, first compound 0.00316 µM) 7.85% | viability, T/C (second compound 0.316 µM, first compound 0.01 µM) 8.34% | viability, T/C (second compound 0.316 µM, first compound 0.0316 µM) 4.97% | viability, T/C (second compound 0.316 µM, first compound 0.1 µM) 1.98% | viability, T/C (second compound 0.316 µM, first compound 0.316 µM) 0.56% | viability, T/C (second compound 0.316 µM, first compound 1 µM) 0.49% | viability, T/C (second compound 1 µM, first compound 0.00316 µM) 8.6% | viability, T/C (second compound 1 µM, first compound 0.01 µM) 6.08% | viability, T/C (second compound 1 µM, first compound 0.0316 µM) 4.68% | viability, T/C (second compound 1 µM, first compound 0.1 µM) 1.06% | viability, T/C (second compound 1 µM, first compound 0.316 µM) 0.44% | viability, T/C (second compound 1 µM, first compound 1 µM) 0.48% | viability, T/C (second compound 3.16 µM, first compound 0.00316 µM) 5.39% | viability, T/C (second compound 3.16 µM, first compound 0.01 µM) 5.31% | viability, T/C (second compound 3.16 µM, first compound 0.0316 µM) 3.11% | viability, T/C (second compound 3.16 µM, first compound 0.1 µM) 0.45% | viability, T/C (second compound 3.16 µM, first compound 0.316 µM) 0.35% | viability, T/C (second compound 3.16 µM, first compound 1 µM) 0.46% | viability, T/C (second compound 10 µM, first compound 0.00316 µM) 3.54% | viability, T/C (second compound 10 µM, first compound 0.01 µM) 5% | viability, T/C (second compound 10 µM, first compound 0.0316 µM) 2.62% | viability, T/C (second compound 10 µM, first compound 0.1 µM) 0.51% | viability, T/C (second compound 10 µM, first compound 0.316 µM) 0.53% | viability, T/C (second compound 10 µM, first compound 1 µM) 0.49%
